# US20260055112A1, “CRYSTALLINE FORM OF PYRAZOLOPYRIMIDINE ESTER COMPOUND AND METHODS OF PREPARING THE SAME” (Shanghai Maius Pharmaceutical Co. Ltd., priority 2022, published 2026)
# Entries after “also recorded” stand apart in the source; their conditions may differ.
# Assays:
# [1] = Stability study: change in purity after 10 days storage under forced degradation conditions; type: physicochemical; details: for Purity, 25° C. + 92.5% RH (Day 10): stored at 25° C. and 92.5% RH for 10 days; for Purity (Day 10): stored for 10 days
# Method: Samples of the amorphous and crystalline (Form I) compound of formula (I) were stored under different conditions: at 40° C. for 10 days; […]; at 25° C. and 92.5% RH (relative humidity) for 10 days; at 60° C. and 75% RH for 10 days; in light for 10 days; and at room temperature for 10 days.
# [2] = among the pyrazolopyrimidine ester prodrugs of CN 202111131059.0; cited from earlier work
SMILES,"Stability in general (in words) ([1]; amorphous product, heat and moisture)",Degradation observed (in words) ([1]; storage 10 days at 40° C.),"Degradation observed (in words) ([1]; storage 10 days at 40° C., listed as amorphous sample)",Degradation observed (in words) ([1]; storage 10 days at 60° C. and 75% RH),"Purity, 25° C. + 92.5% RH (Day 10) [1] [%]",Purity (Day 10) [1] [%],Rate of hydrolysis in blood [2],Stability (in words) ([1]; 10 days of storage at room temperature and in light),Degree of degradation compared with the amorphous form ([1]; several forced degradation conditions)
"C=CC(=O)N1CCC[C@@H](n2nc(-c3ccc(Oc4ccccc4)cc3)c3c(NC(=O)OCCCC)ncnc32)C1 [Amorphous, 1-[(3R)-3-[4-(butoxycarbonyl)-amino-3-(4-phenoxyphenyl)-1H-pyrazolo[3,4-d]pyrimidin-1-yl]-1-piperidinyl]-2-propen-1-one]",poor stability,Significant degradation,Noticeable degradation,almost complete degradation,98.00,0,,,
"C=CC(=O)N1CCC[C@@H](n2nc(-c3ccc(Oc4ccccc4)cc3)c3c(NC(=O)OCCCC)ncnc32)C1 [formula (I), 1-[(3R)-3-[4-(butoxycarbonyl)-amino-3-(4-phenoxyphenyl)-1H-pyrazolo[3,4-d]pyrimidin-1-yl]-1-piperidinyl]-2-propen-1-one]",,,,,,,hydrolyzed most rapidly,,
"C=CC(=O)N1CCC[C@@H](n2nc(-c3ccc(Oc4ccccc4)cc3)c3c(NC(=O)OCCCC)ncnc32)C1 [Form I, 1-[(3R)-3-[4-(butoxycarbonyl)-amino-3-(4-phenoxyphenyl)-1H-pyrazolo[3,4-d]pyrimidin-1-yl]-1-piperidinyl]-2-propen-1-one]",,,,,98.63,2.19,,highly stable; also recorded: very stable,lower degrees of degradation than the amorphous compound; also recorded: lower degree of degradation than the amorphous form
